pIC50: −log10 of the molar value. Counter-ions that a name gives are not always drawn. Like-named read-outs stand apart in the source and are kept apart here.
Test system: amyloid β production in transfected H4 (human neuroglioma) cells stably expressing APP constructs
Experiment: In vitro cell-based assay of inhibitors of amyloid β production (ELISA)
Outline: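 Plate wt/variant APP cells; ≥6 h later swap to medium + compound (10-100 μM screen); incubate ~16 h; sample medium; Aβ ELISA with C-terminal capture / N-terminal detection Abs; quantify vs Aβ standard curve.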

[1] = transfected H4 cells stably expressing APP, approx. 16 h incubation, amyloid β in medium by ELISA, read-out: ACTIVITY (IC50, inhibition of amyloid β production)
[2] = Homo sapiens, 16 h, transfected H4 cells expressing APP, approximately 16 hours incubation, amyloid β in medium by ELISA, read-out: ACTIVITY (IC50, inhibition of amyloid β production)
[3] = transfected H4 cells stably expressing APP constructs, approximately 16 hours incubation, amyloid β in medium by ELISA, read-out: ACTIVITY (IC50, inhibition of amyloid β production)
[4] = Homo sapiens, 16 h, transfected H4 cells stably expressing APP, approximately 16 hours incubation, amyloid β in medium by ELISA, read-out: ACTIVITY (IC50, inhibition of amyloid β production)
[5] = transfected H4 cells stably expressing APP, approximately 16 hours incubation, amyloid β in medium by ELISA, read-out: ACTIVITY (IC50, inhibition of amyloid β production)
[6] = transfected H4 cells stably expressing APP, approximately 16 hours incubation, amyloid β in medium by ELISA, Table B, read-out: ACTIVITY (IC50, inhibition of amyloid β production)
[7] = Homo sapiens, 16 h, transfected H4 cells stably expressing APP constructs, approximately 16 hours incubation, amyloid β in medium by ELISA, read-out: ACTIVITY (IC50, inhibition of amyloid β production)

## 2-[2-((1R)-1-{[(4-chlorophenyl)sulfonyl]-2,5-difluoroanilino}ethyl)phenyl]ethyl phenylcarbamate [Example 762]
[1]
  pIC50: 6.30 to 7.00

## C[C@H](C(=O)NC[C@]12CC3C[C@H](C[C@H](C3)C1)C2)N(c1cc(Cl)ccc1F)S(=O)(=O)c1ccc(Cl)cc1 [Example 1306]
[2]
  pIC50: < 6.30

## COC(=O)C1SCCN1CC[C@@H](C)N(c1cc(Cl)ccc1Cl)S(=O)(=O)c1ccc(Cl)cc1 (stereo partly drawn) [Example 1133, 4-chloro-N-(2,5-dichlorophenyl)-N-[3-(2-methoxycarbonyl-3-thiazolidinyl)-1(R)-methylpropyl]benzenesulfonamide]
[3]
  pIC50: 7.00 to 7.30

## COC(=O)[C@H](CC(C)C)NC(=O)CCCC[C@@H](C)N(c1cc(Cl)ccc1F)S(=O)(=O)c1ccc(Cl)cc1 [Example 543, (R)-4-Chloro-N-(5-chloro-2-fluorophenyl)-N-[6-[N-(S)-[1-(methoxycarbonyl)-3-methylbutyl]amino]-1-methyl-6-oxohexyl]benzenesulfonamide]
[1]
  pIC50: 6.30 to 7.00

## CCCCCCCCCCCCCCNC(=O)[C@@H](C)N(c1cc(Cl)ccc1F)S(=O)(=O)c1ccc(Cl)cc1 [Example 1337]
[2]
  pIC50: < 6.30

## C[C@H](c1ccccc1CCCn1ccnc1)N(c1cc(F)ccc1F)S(=O)(=O)c1ccc(Cl)cc1 [Example 1056, 4-chloro-N-(2,5-difluorophenyl)-N-((1R)-1-{2-[3-(1H-imidazol-1-yl)propyl]phenyl}ethyl)benzenesulfonamide hydrochloride]
[4]
  pIC50: < 6.30

## C[C@H](CCC[S+](C)[O-])N(c1cc(Cl)ccc1Cl)S(=O)(=O)c1ccc(Cl)cc1 (stereo partly drawn) [Example 1171, 4-chloro-N-[2,5-dichlorophenyl]-N-[1(R)-methyl-(4-methylsulfinyl)butyl]benzenesulfonamide]
[3]
  pIC50: ≥ 7.60

## O=S(=O)(c1ccc(Cl)cc1)N(CCc1ccccc1OCCCN1CCCCC1)c1ccccc1 [Example 972, 4-chloro-N-phenyl-N-(2-{2-[3-(1-piperidinyl)propoxy]phenyl}ethyl)benzenesulfonamide hydrochloride]
[4]
  pIC50: < 6.30

## 3-chloro-N-{3-[2-(1-{[(4-chlorophenyl)sulfonyl]-2,5-difluoroanilino}ethyl)phenoxy]propyl}benzamide [Example 900]
[5]
  pIC50: < 6.30

## Cc1cccc(C(=O)N(C)CCCOc2ccccc2C(C)N(c2cc(F)ccc2F)S(=O)(=O)c2ccc(Cl)cc2)c1 (centres unmarked) [Example 766]
[1]
  pIC50: 6.30 to 7.00

## N-{2-[2-(1-{[(4-chlorophenyl)sulfonyl]-2,5-difluoroanilino}ethyl)phenoxy]ethyl}-N-ethylbutanamide [Example 646]
[1]
  pIC50: 6.30 to 7.00

## CN(CCCOc1ccccc1CN(c1cc(F)ccc1F)S(=O)(=O)c1ccc(Cl)cc1)C(=O)/C=C\c1ccccc1 [Example 841, (2Z)-N-{3-[2-({[(4-chlorophenyl)sulfonyl]-2,5-difluoroanilino}methyl)phenoxy]propyl}-N methyl-3-phenyl-2-propenamide]
[5]
  pIC50: 6.30 to 7.00

## O=S(=O)(c1ccc(Cl)cc1)N(Cc1ccccc1OCCCN1CCCCC1)c1cc(Cl)cnc1Cl [Example 906, 4-chloro-N-(2,5-dichloro-3-pyridinyl)-N-{2-[3-(1-piperidinyl)propoxy]benzyl}benzenesulfonamide hydrochloride]
[4]
  pIC50: < 6.30

## N-{4-[2-(1-{[(4-chlorophenyl)sulfonyl]-2,5-difluoroanilino}ethyl)phenoxy]butyl}-N-ethylcyclopropanecarboxamide [Example 959]
[5]
  pIC50: < 6.30

## N-{3-[2-({[(4-chlorophenyl)sulfonyl]-2,5-difluoroanilino}methyl)phenoxy]propyl}-3,5-difluoro-N-methylbenzamide [Example 1000]
[5]
  pIC50: < 6.30

## C[C@H](COC(=O)NCCCn1ncnn1)N(c1cc(Cl)ccc1F)S(=O)(=O)c1ccc(Cl)cc1 [Example 1295]
[2]
  pIC50: ≥ 7.60

## N-{3-[2-(1-{[(4-chlorophenyl)sulfonyl]-2,5-difluoroanilino}ethyl)phenoxy]propyl}-4-methoxybenzamide [Example 819]
[5]
  pIC50: 6.30 to 7.00

## COC(=O)[C@H](CS(=O)(=O)CCCc1cc(F)ccc1[C@@H](C)N(c1cc(F)ccc1F)S(=O)(=O)c1ccc(Cl)cc1)NC(=O)OC(C)(C)C [Example 486]
[6]
  pIC50: 6.30 to 7.00

## COS(=O)(=O)CCC[C@@H](C)N(c1cc(Cl)ccc1Cl)S(=O)(=O)c1ccc(Cl)cc1 [Example 1195, methyl(4R)-4-[N-[2,5-dichlorophenyl][(4-chlorophenyl)sulfonyl]amino]pentylsulfonate]
[7]
  pIC50: < 6.30

## 4-butoxy-N-{3-[2-({[(4-chlorophenyl)sulfonyl]-2,5-difluoroanilino}methyl)phenoxy]propyl}-N-methylbenzamide [Example 817]
[5]
  pIC50: 6.30 to 7.00

## 2-[2-((1R)-1-{[(4-chlorophenyl)sulfonyl]-2,5-difluoroanilino}ethyl)-5-fluorophenyl]ethyl 2,5-difluorobenzylcarbamate [Example 358]
[6]
  pIC50: 7.00 to 7.30

## C[C@H](c1ccccc1COC(=O)NCc1ccco1)N(c1cc(F)ccc1F)S(=O)(=O)c1ccc(Cl)cc1 [Example 667, 2-((1R)-1-{[(4-chlorophenyl)sulfonyl]-2,5-difluoroanilino}ethyl)benzyl 2-furylmethylcarbamate]
[1]
  pIC50: 6.30 to 7.00

## N-{2-[2-(1-{[(4-chlorophenyl)sulfonyl]-2,5-difluoroanilino}ethyl)phenoxy]ethyl}-N-methylpentanamide [Example 664]
[1]
  pIC50: 6.30 to 7.00

## N-{3-[2-({[(4-chlorophenyl)sulfonyl]-2,5-difluoroanilino}methyl)phenoxy]propyl}-N-methylbenzamide [Example 800]
[1]
  pIC50: 6.30 to 7.00

## CC(C)(O)C#Cc1ccccc1CN(c1ccccc1)S(=O)(=O)c1ccc(Cl)cc1 [Example 1086, 4-chloro-N-[2-(3-hydroxy-3-methyl-1-butynyl)benzyl]-N-phenylbenzenesulfonamide]
[7]
  pIC50: < 5.00

## N-{3-[2-({[(4-chlorophenyl)sulfonyl]-2,5-difluoroanilino}methyl)phenoxy]propyl}-4-ethoxy-N-methylbenzamide [Example 1010]
[5]
  pIC50: < 6.30

## Cc1ccc(OCCCN2CCCCC2)c(CN(c2cc(F)ccc2F)S(=O)(=O)c2ccc(Cl)cc2)c1 [Example 232, 4-Chloro-N-(2,5-difluorophenyl)-N-{5-methyl-2-[3-(1-piperidinyl)propoxy]benzyl}benzenesulfonamide hydrochloride]
read-out: ACTIVITY (inhibitory concentration IC50, inhibition of amyloid β production)
  pIC50: 7.30 to 7.60

## CN1CCCCC1CCOc1ccccc1CN(c1ccccc1)S(=O)(=O)c1ccc(Cl)cc1 (centres unmarked) [Example 276, 4-Chloro-N-{2-[2-(1-methyl-2-piperidinyl)ethoxy]benzyl}-N-phenylbenzenesulfonamide Hydrochloride]
[6]
  pIC50: 7.30 to 7.60

## O=S(=O)(c1ccc(Cl)cc1)N(Cc1ccccc1OCCC[S+]([O-])c1ccccc1)c1cc(F)ccc1F (centres unmarked) [Example 702, 4-chloro-N-(2,5-difluorophenyl)-N-{2-[3-(phenylsulfinyl)propoxy]benzyl}benzenesulfonamide]
Homo sapiens, 16 h, transfected H4 cells stably expressing APP, approx. 16 h incubation, amyloid β in medium by ELISA, read-out: ACTIVITY (IC50, inhibition of amyloid β production)
  pIC50: 6.30 to 7.00

## C[C@H](c1ccc(F)cc1CCCC(=O)O)N(c1cc(F)ccc1F)S(=O)(=O)c1ccc(Cl)cc1 [Example 494, 4-[2-((1R)-1-{[(4-chlorophenyl)sulfonyl]-2,5-difluoroanilino}ethyl) 5-fluorophenyl]butanoic Acid]
[6]
  pIC50: 6.30 to 7.00

## CC(c1ccccc1OCCCN(C)C(=O)C12CCC(C)(C(=O)O1)C2(C)C)N(c1cc(F)ccc1F)S(=O)(=O)c1ccc(Cl)cc1 (centres unmarked) [Example 387, N-{3-[2-(1-{[(4-chlorophenyl)sulfonyl]-2,5-difluoroanilino}ethyl)phenoxy]propyl}-N,4,7,7-tetramethyl-3-oxo-2-oxabicyclo[2.2.1]heptane-1-carboxamide]
Homo sapiens, 16 h, transfected H4 cells stably expressing APP, approximately 16 hours incubation, amyloid β in medium by ELISA, Table B, read-out: ACTIVITY (IC50, inhibition of amyloid β production)
  pIC50: 7.00 to 7.30

## O=S(=O)(c1ccc(Sc2ccccc2)cc1)N(Cc1ccccc1OCCCSc1ccccc1)c1cc(F)ccc1F [Example 1095, N-(2,5-difluorophenyl)-4-(phenylsulfanyl)-N-{2-[3-(phenylsulfanyl)propoxy]benzyl}benzenesulfonamide]
[7]
  pIC50: < 5.00

## O=S(=O)(c1ccc(Cl)cc1)N(Cc1ccccc1)Cc1ccccc1OCCCN1CCCCC1 [Example 886, N-benzyl-4-chloro-N-{2-[3-(1-piperidinyl)propoxy]benzyl}benzenesulfonamide hydrochloride]
[4]
  pIC50: < 6.30

## O=S(=O)(c1ccc(Cl)cc1)N(Cc1ccccc1OCCC[N+]1([O-])CCCCC1)c1ccccc1 [Example 505, 4-Chloro-N-{2-[3-(1-hydroxy-1˜lambda˜5˜piperidin-1-yl)propoxy]benzyl}-N-phenylbenzenesulfonamide]
[6]
  pIC50: 6.30 to 7.00

## CC(c1ccccc1OCCCN(C)C(=O)c1cc([N+](=O)[O-])cc([N+](=O)[O-])c1)N(c1cc(F)ccc1F)S(=O)(=O)c1ccc(Cl)cc1 (centres unmarked) [Example 668, N-{3-[2-(1-{[(4-chlorophenyl)sulfonyl]-2,5-difluoroanilino}ethyl)phenoxy]propyl}-N-methyl-3,5-dinitrobenzamide]
[1]
  pIC50: 6.30 to 7.00
